# Source: US9988400B2 (Genentech, Inc., priority 2013, dated 2018)
# Molecular target: T1, HEK cells stably transfected with tetracycline inducible hNR1 and hNR2A (Homo sapiens, UniProt Q05586+Q12879)
# T1 construct: expressed in transfected cells; host or cells: HEK cells, stably transfected, tetracycline/doxycycline inducible
# Assay: Assay 1: Cell-Based Assay, cytosolic calcium response to positive allosteric modulators (with 30 μM glycine and 300 nM L-glutamate, EC30)
# Details: for EC50: cytosolic calcium response, with 30 μM glycine and 300 nM L-glutamate (EC30), — = no plateau was reached; for Max %: responses scaled relative to 100 μM L-glutamate maximal response (100%) and 0 μM L-glutamate (0%)
# In short: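 Cells induced 24 h with 7.5 μg mL^−1 doxycycline plus 500 μM (+)-ketamine, loaded 60 min at 37 °C with calcium dye in Mg-free HBSS (1.8 mM Ca, probenecid, 10 μM (+)-ketamine, pH 7.15). Peak RFU over 5 min after compound addition, scaled to 100 μM L-glutamate (100%) and 0 μM (0%); four-parameter Hill fit for EC50, max % if no plateau.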
# T1 sequence (Q12879 23-1464, other chains not shown): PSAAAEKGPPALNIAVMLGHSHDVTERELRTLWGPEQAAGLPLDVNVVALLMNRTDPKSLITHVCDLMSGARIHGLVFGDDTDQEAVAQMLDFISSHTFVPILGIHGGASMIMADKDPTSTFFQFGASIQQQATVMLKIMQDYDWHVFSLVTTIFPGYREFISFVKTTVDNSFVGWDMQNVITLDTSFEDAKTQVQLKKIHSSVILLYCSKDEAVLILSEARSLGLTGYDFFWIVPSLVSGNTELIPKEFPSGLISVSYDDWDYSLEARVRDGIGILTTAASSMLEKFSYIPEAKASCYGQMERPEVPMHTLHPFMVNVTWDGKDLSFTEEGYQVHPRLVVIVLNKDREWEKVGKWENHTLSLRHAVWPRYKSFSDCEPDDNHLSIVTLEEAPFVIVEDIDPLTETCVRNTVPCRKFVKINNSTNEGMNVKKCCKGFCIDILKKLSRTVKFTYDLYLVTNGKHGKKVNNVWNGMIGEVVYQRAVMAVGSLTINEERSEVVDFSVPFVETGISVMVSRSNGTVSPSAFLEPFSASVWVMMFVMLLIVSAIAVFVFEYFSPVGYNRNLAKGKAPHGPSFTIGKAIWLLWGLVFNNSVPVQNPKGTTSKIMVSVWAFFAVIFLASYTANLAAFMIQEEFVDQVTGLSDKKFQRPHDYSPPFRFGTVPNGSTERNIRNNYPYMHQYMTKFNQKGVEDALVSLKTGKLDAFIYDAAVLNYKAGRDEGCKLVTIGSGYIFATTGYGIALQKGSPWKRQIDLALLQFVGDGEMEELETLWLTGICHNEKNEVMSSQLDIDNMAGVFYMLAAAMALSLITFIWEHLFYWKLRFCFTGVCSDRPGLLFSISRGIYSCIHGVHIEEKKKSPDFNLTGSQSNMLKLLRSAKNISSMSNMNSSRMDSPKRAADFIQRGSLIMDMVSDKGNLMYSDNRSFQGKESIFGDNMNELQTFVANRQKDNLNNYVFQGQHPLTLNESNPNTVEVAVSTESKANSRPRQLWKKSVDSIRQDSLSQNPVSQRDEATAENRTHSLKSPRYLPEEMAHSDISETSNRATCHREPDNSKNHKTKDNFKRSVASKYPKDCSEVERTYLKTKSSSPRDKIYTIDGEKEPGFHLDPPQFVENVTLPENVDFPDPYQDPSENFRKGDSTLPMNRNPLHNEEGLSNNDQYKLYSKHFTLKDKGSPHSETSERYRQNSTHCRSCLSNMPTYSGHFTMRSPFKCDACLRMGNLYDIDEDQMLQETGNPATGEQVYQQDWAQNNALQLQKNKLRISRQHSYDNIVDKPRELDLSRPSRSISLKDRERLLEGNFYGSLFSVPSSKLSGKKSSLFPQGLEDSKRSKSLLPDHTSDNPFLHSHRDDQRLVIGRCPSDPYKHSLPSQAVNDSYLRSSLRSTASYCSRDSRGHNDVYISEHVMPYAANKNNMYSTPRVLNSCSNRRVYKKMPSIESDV
SMILES,EC50 (Table 3),EC50 (Table 2),Max % (Table 2)
"Cc1sc2nc(Cn3nc(C(F)(F)F)cc3Cl)cc(=O)n2c1C1CC1C (single isomer, unassigned) [compound 154]",0.504 µM,,
"Cc1sc2nc(Cn3nc(C(F)(F)F)cc3Cl)cc(=O)n2c1C1CC1C (single isomer, unassigned) [compound 155]",0.0616 µM,,
"N#CC1CC1c1c(C(F)(F)F)sc2nc(Cn3nc(C(F)(F)F)cc3Cl)cc(=O)n12 (single isomer, unassigned) [compound 207]",0.0074 µM,,
"N#CC1CC1c1c(C(F)(F)F)sc2nc(Cn3nc(C(F)(F)F)cc3Cl)cc(=O)n12 (single isomer, unassigned) [compound 208]",0.37 µM,,
"N#CC1CC1c1c(Cl)sc2nc(Cn3nc(C(F)(F)F)cc3Cl)cc(=O)n12 (single isomer, unassigned) [compound 266]",0.0249 µM,,
"O=c1cc(Cn2nc(C(F)(F)F)cc2Cl)nc2sc(C(F)(F)F)c([C@@H]3C[C@H]3CO)n12 (single isomer, unassigned) [compound 269]",0.0831 µM,,
"O=c1cc(Cn2nc(C(F)(F)F)cc2Cl)nc2sc(C(F)(F)F)c(C3CC3CO)n12 (single isomer, unassigned) [compound 270]",0.518 µM,,
"Cc1sc2nc(Cn3ccc(C(F)(F)F)n3)cc(=O)n2c1C1CC1C#N (single isomer, unassigned) [compound 272]",0.252 µM,,
"Cc1sc2nc(Cn3ccc(C(F)(F)F)n3)cc(=O)n2c1C1CC1C#N (single isomer, unassigned) [compound 273]",2.08 µM,,
"Cc1sc2nc(Cn3nc(C(F)(F)F)cc3Br)cc(=O)n2c1[C@@H]1C[C@@H]1C#N (single isomer, unassigned) [compound 274]",0.012 µM,,
"Cc1sc2nc(Cn3nc(C(F)(F)F)cc3Br)cc(=O)n2c1C1CC1C#N (single isomer, unassigned) [compound 275]",0.0737 µM,,
"N#CC1CC1c1c(C(F)(F)F)sc2nc(Cn3nc(C(F)(F)F)cc3Cl)c(F)c(=O)n12 (single isomer, unassigned) [compound 276]",0.0364 µM,,
"N#CC1CC1c1c(C(F)(F)F)sc2nc(Cn3nc(C(F)(F)F)cc3Cl)c(F)c(=O)n12 (single isomer, unassigned) [compound 277]",0.155 µM,,

# Other lines, results leading:
EC50 (Table 3),EC50 (Table 2),Max % (Table 2),SMILES
,25.3 µM,,"Cc1sc2nc(Cc3cccc(C(F)(F)F)c3F)cc(=O)n2c1C(C)O (single isomer, unassigned; enantiomer 1) [Example 27.11, 7-(2-fluoro-3-(trifluoromethyl)benzyl)-3-(1-hydroxyethyl)-2-methyl-5H-thiazolo[3,2-a]pyrimidin-5-one (enantiomer 1)]"
,40.8 µM,,"Cc1sc2nc(Cc3cccc(C(F)(F)F)c3F)cc(=O)n2c1C(C)O (single isomer, unassigned; enantiomer 2) [Example 27.12, 7-(2-fluoro-3-(trifluoromethyl)benzyl)-3-(1-hydroxyethyl)-2-methyl-5H-thiazolo[3,2-a]pyrimidin-5-one (enantiomer 2)]"
,9.6 µM,63%,"Cc1sc2nc(COc3ccc(F)cc3)cc(=O)n2c1C(=O)NCC#N [Example 1.1, N-(cyanomethyl)-7-((4-fluorophenoxy)methyl)-2-methyl-5-oxo-5H-thiazolo[3,2-a]pyrimidine-3-carboxamide]"
,,92%,"CNC(=O)c1c(C)sc2nc(COc3ccc(F)cc3)cc(=O)n12 [Example 1.2, 7-(4-Fluorophenoxymethyl)-N,2-dimethyl-5-oxo-5H-[1,3]thiazolo[3,2-a]pyrimidine-3-carboxamide]"
,,45%,"Cc1sc2nc(COc3ccc(F)cc3)cc(=O)n2c1C(=O)N1CCC1 [Example 1.3, 3-[(Azetidin-1-yl)carbonyl]-7-(4-fluorophenoxymethyl)-2-methyl-5H-[1,3]thiazolo[3,2-a]pyrimidin-5-one]"
,11.2 µM,59.5%,"CCNC(=O)c1c(C)sc2nc(COc3ccc(F)cc3)cc(=O)n12 [Example 1.4, N-ethyl-7-(4-fluorophenoxymethyl)-2-methyl-5-oxo-5H-[1,3]thiazolo[3,2-a] pyrimidine-3-carboxamide]"
,23 µM,51.4%,"Cc1sc2nc(COc3ccc(F)cc3)cc(=O)n2c1C(=O)NCC(F)(F)F [Example 1.5, 7-(4-Fluorophenoxymethyl)-2-methyl-5-oxo-N-(2,2,2-trifluoroethyl)-5H-[1,3]thiazolo[3,2-a]pyrimidine-3-carboxamide]"
,31.6 µM,64%,"CNC(=O)c1c(C)sc2nc(COc3ccc(F)c(F)c3)cc(=O)n12 [Example 1.6, 7-(3,4-Difluorophenoxymethyl)-N,2-dimethyl-5-oxo-5H-[1,3]thiazolo[3,2-a] pyrimidine-3-carboxamide]"
,27 µM,44.8%,"CCNC(=O)c1csc2nc(COc3ccc(F)cc3)cc(=O)n12 [Example 1.7, N-ethyl-7-(4-fluorophenoxymethyl)-5-oxo-5H-[1,3]thiazolo[3,2-a]pyrimidine-3-carboxamide]"
,26.3 µM,47.4%,"Cc1sc2nc(COc3ccc(F)cc3)cc(=O)n2c1C(N)=O [Example 1.8, 7-((4-fluorophenoxy)methyl)-2-methyl-5-oxo-5H-thiazolo[3,2-a]pyrimidine-3-carboxamide]"
,,99.5%,"Cc1sc2nc(COc3ccc(F)cc3)cc(=O)n2c1C(=O)NO [Example 1.9, 7-((4-fluorophenoxy)methyl)-N-hydroxy-2-methyl-5-oxo-5H-thiazolo[3,2-a] pyrimidine-3-carboxamide]"
,,44%,"Cc1sc2nc(COc3ccc(F)cc3)cc(=O)n2c1C(=O)NC(C)C [Example 1.10, 7-(4-Fluorophenoxymethyl)-2-methyl-5-oxo-N-(propan-2-yl)-5H-[1,3]thiazolo[3,2-a] pyrimidine-3-carboxamide]"
,,73%,"Cc1sc2nc(COc3ccc(F)cc3)cc(=O)n2c1C(=O)NCCO [Example 1.11, 7-(4-Fluorophenoxymethyl)-N-(2-hydroxyethyl)-2-methyl-5-oxo-5H-[1,3]thiazolo[3,2-a]pyrimidine-3-carboxamide]"
,,45.5%,"Cc1sc2nc(COc3ccc(F)cc3)cc(=O)n2c1C(=O)NC(C)CO (stereo not shown) [Example 1.12, 7-(4-Fluorophenoxymethyl)-N-(1-hydroxypropan-2-yl)-2-methyl-5-oxo-5H-[1,3]thiazolo[3,2-a]pyrimidine-3-carboxamide]"
,,41.6%,"Cc1sc2nc(COc3ccc(F)cc3)cc(=O)n2c1C(=O)NCC1COC1 [Example 1.13, 7-((4-fluorophenoxy)methyl)-2-methyl-N-(oxetan-3-ylmethyl)-5-oxo-5H-thiazolo[3,2-a]pyrimidine-3-carboxamide]"
,,42.7%,"Cc1sc2nc(COc3ccc(F)cc3)cc(=O)n2c1C(=O)NCCCO [Example 1.14, 7-((4-fluorophenoxy)methyl)-N-(3-hydroxypropyl)-2-methyl-5-oxo-5H-thiazolo[3,2-a]pyrimidine-3-carboxamide]"
,,55.1%,"Cc1sc2nc(COc3ccc(F)cc3)cc(=O)n2c1C(=O)NC1CC1 [Example 1.15, N-cyclopropyl-7-((4-fluorophenoxy)methyl)-2-methyl-5-oxo-5H-thiazolo[3,2-a]pyrimidine-3-carboxamide]"
,,56.5%,"CONC(=O)c1c(C)sc2nc(COc3ccc(F)cc3)cc(=O)n12 [Example 1.16, 7-((4-fluorophenoxy)methyl)-N-methoxy-2-methyl-5-oxo-5H-thiazolo[3,2-a] pyrimidine-3-carboxamide]"
,4 µM,68.6%,"CNC(=S)c1c(C)sc2nc(COc3ccc(F)cc3)cc(=O)n12 [Example 1.17, 7-(4-Fluorophenoxymethyl)-N,2-dimethyl-5-oxo-5H-[1,3]thiazolo[3,2-a]pyrimidine-3-carbothioamide]"
,5.2 µM,51.3%,"CCC(=O)c1c(C)sc2nc(COc3ccc(F)cc3)cc(=O)n12 [Example 2.1, 7-((4-fluorophenoxy)methyl)-2-methyl-3-propionyl-5H-thiazolo[3,2-a]pyrimidin-5-one]"
,,96.5%,"CCC(O)c1c(C)sc2nc(COc3ccc(F)cc3)cc(=O)n12 (stereo not shown) [Example 2.2, 7-((4-fluorophenoxy)methyl)-3-(1-hydroxypropyl)-2-methyl-5H-thiazolo[3,2-a]pyrimidin-5-one]"
,12.6 µM,49.8%,"Cc1sc2nc(COc3ccc(F)cc3)cc(=O)n2c1C(C)O (stereo not shown) [Example 2.3, 7-(4-Fluorophenoxymethyl)-3-(1-hydroxyethyl)-2-methyl-5H-[1,3]thiazolo[3,2-a]pyrimidin-5-one]"
,3 µM,44.6%,"Cc1sc2nc(COc3ccc(F)cc3)cc(=O)n2c1C(C)(C)O [Example 2.4, 7-(4-Fluorophenoxymethyl)-3-(2-hydroxypropan-2-yl)-2-methyl-5H-[1,3]thiazolo[3,2-a]pyrimidin-5-one]"
,32.9 µM,115%,"CC(=O)c1c(C)sc2nc(COc3ccc(F)cc3)cc(=O)n12 [Example 2.5, 3-acetyl-7-((4-fluorophenoxy)methyl)-2-methyl-5H-thiazolo[3,2-a]pyrimidin-5-one]"
,19.6 µM,59.9%,"CNC(=O)Cc1c(C)sc2nc(COc3ccc(F)cc3)cc(=O)n12 [Example 2.6, 2-(7-((4-fluorophenoxy)methyl)-2-methyl-5-oxo-5H-thiazolo[3,2-a]pyrimidin-3-yl)-N-methylacetamide]"
,26 µM,61.3%,"Cc1sc2nc(COc3ccc(F)cc3)cc(=O)n2c1C(=O)C1CC1 [Example 2.7, 3-Cyclopropanecarbonyl-7-(4-fluorophenoxymethyl)-2-methyl-5H-[1,3]thiazolo[3,2-a]pyrimidin-5-one]"
